# Laboratory results reported in patent publication US9908863B2, “Piperidinylcarbazoles” (Merck Patent GmbH, priority 2013, dated 2018).
# Tested on: Chloroquine/Pyrimethamine resistant Plasmodium falciparum K1
# Assay: In vitro sensitivity assay: Plasmodium falciparum by 3H-hypoxanthine incorporation
# Assay type: cell-based
# Conditions: Erythrocyte, P. falciparum K1 strain in human red blood cells, 3H-hypoxanthine incorporation, read-out: IC50 K1 in vitro
# Method: Biological Test 1: In Vitro Sensitivity Assays: Plasmodium falciparum by ^3H-Hypoxanthine Incorporation.
# The strain used for this assay is the Chloroquine/Pyrimethamine resistant Plasmodium falciparum K1 and drugs such as Chloroquine (10 mg/mL stock; start concentration 1000 ng/mL) and Artemisinine (Qinghaosu) (5 mg/mL stock; start concentration 10 ng/mL) were used as standards. Human red blood cells were used as host cells and the activity was measured using a ^3H-hypoxanthine incorporation assay.
# Into a Costar™ 96-well microtitre plates, 100 μL of medium (RPMI 1640 without hypoxanthine 10.44 g/L, HEPES 5.94 g/L, Albumax® 5 g/L, Neomycin 10 mL/L, NaHCO3 2.1 g/L) were added to the wells of row containing drugs available from stock solutions of 10 mg/mL in DMSO (compounds were kept at −20° C. Since DMSO is toxic, care had to be taken not to exceed a final concentration of 0.5% DMSO). Then 100 μL of medium were added at rt to all wells of the plate. By means of a 12-well multi-pipette serial drug dilutions were prepared. A serial dilution factor of 1:2 is thus obtained. One row of wells without drugs served as controls. Next 100 μL of medium+washed human red blood cells A+(RBC) was added to the last 4 wells of the first row; these columns serve as background controls (that may be caused by 3H-hypoxanthine incorporation into RBC without the parasite). Into the remaining wells, 100 μL of medium+RBC+P. falciparum mix was added. The plates were placed for 48 h into a chamber at 37° C. gassed with a 4% CO2, 3% O2, 93% N2 mix. Finally 50 μL of medium+3H-hypoxanthine [(500 μL ^3H-hypoxanthine stock+500 μL EtOH+49 mL medium (0.5 μCi)] was added to each well and the plates were put back at 37° C. for 24 h into the chamber and gassed with a 4% CO2, 3% O2, 93% N2 mix. The plates were then read using the Cell Harvester and the data were transferred into a graphic program (Excel) and are evaluated to determine the IC50 by linear interpolation.
row,IC50,Structure (SMILES)
1,315 nM,"CC(C)(C)OC(=O)N1CC[C@H](n2c3ccc(F)cc3c3cc(Cl)ccc32)[C@@H](O)C1 (racemic) [Compound 1, trans-4-(3-Chloro-6-fluoro-carbazol-9-yl)-3-hydroxy-piperidine-1-carboxylic acid tert-butyl ester]"
2,127 nM,"CC(C)(C)OC(=O)N1CC[C@@H](O)[C@H](n2c3ccc(F)cc3c3cc(Cl)ccc32)C1 (racemic) [Compound 2, trans-3-(3-Chloro-6-fluoro-carbazol-9-yl)-4-hydroxy-piperidine-1-carboxylic acid tert-butyl ester]"
3,781 nM,"O[C@H]1CCNC[C@@H]1n1c2ccc(Cl)cc2c2cc(Cl)ccc21 (racemic) [Compound 8, trans-3-(3,6-dichloro-9H-carbazol-9-yl)piperidin-4-ol]"
4,13 nM,O[C@H]1CCN(C2CCCCC2)C[C@@H]1n1c2ccc(Cl)cc2c2cc(Cl)ccc21 (racemic) [Compound 14]

# Tested on: P. falciparum strain NF54
# Assay: P. falciparum growth assay ([3H] hypoxanthine incorporation)
# Assay type: cell-based
# Conditions: Plasmodium falciparum; P. falciparum NF54 strain, 72 h incubation, [3H]hypoxanthine incorporation; read-out: IC50 NF54
# Method: • Cultivation of P. falciparum:
# P. falciparum strain NF54 was obtained from the Research and Reference Reagent
# Resource Center (MR4) (Manassas, Va.). The two strains were maintained in vitro by a modification of the method of Trager and Jensen. Cultures were maintained in A positive (A+) human erythrocytes suspended at 5% hematocrit in complete medium. 5 g albumax II (Gibco-Invitrogen, Cat No#11021037), 2.5 mg gentamicin (Sigma Aldrich), 25 mM HEPES (Invitrogen), 5 mg hypoxanthine (Sigma), and 1 L of RPMI 1640 (Invitrogen, Cat No#11875085). Cultures were grown in 100 mm petri-dishes (BD Falcon) at a volume of 15 mL and were kept in a standard gas environment of 4% CO2 and 3% 02 at temperature 37° C. in a tri-gas incubator (Cat#3131, Thermo Scientific Forma Series II Water Jacketed). Parasite growth and morphology were observed daily using thin smears at 100× (oil immersion) magnification following staining with Geimsa stain. • P. falciparum growth assay:
# The protocol assesses the compound efficacy against the growth of P. falciparum in-vitro.
# Parasite growth was detected in assay by the traditional [3H] hypoxanthine incorporation assay as previously described by Desjardins and colleagues (Antimicrob. Agents Chemother., 16(6), 710, 1979). To perform the [3H] hypoxanthine incorporation assay, the new antimalarial agents were serially diluted 1:1 into hypoxanthine-free complete medium to a final volume of 100 μL (final antimalarial agent concentration range, 10,000 nM to 4.8 nM may change in special case) in 96 well sterile cell culture plates. […] All cultures used in the study are albumax II adopted. The microtiter plates were incubated in chamber in a standard gas environment at 37° C. for 72 h. After 48 h of incubation and prior to addition of 50 μL (0.5 μCi/well) 3H-Hypoxanthine (specific activity, 20 Ci/mmol, Conc. 1.0 mCi/ml; American Radiolabeled Chemicals, Inc., St. Louis, Mo.), culture growth was assessed by making the smears that ensures the culture has grown in % p and assay plate is further incubated for 24 h. Following the incubation period, the plates were harvested with a FilterMate cell harvester (Perkin Elmer) onto unifilter-96 GF/B plates, washed with distilled water to remove excess radiochemical and plates were kept for drying 37° C. overnight or 60° C. for 1 h. 50 μL of Microscint scintillation cocktail (Microscint-High Efficiency LSC-Cocktail; Perkin Elmer) added in the unifilter-96 GF/B plates and kept for 15-20 min. The plates were counted in a Top Count NXT microplate scintillation and luminescence counter (Perkin Elmer). The mean values for [3H]hypoxanthine incorporation in parasitized control and non-parasitized control erythrocytes were calculated.
# Assay data were analyzed using Graph pad prism ver.5 software. A variable sigmoid dose response curve is plotted keeping log concentrations at X-axis and % inhibition at Y-axis.
row,Structure (SMILES),IC50
1,"CC(C)(C)OC(=O)N1CC[C@@H](O)[C@H](n2c3ccc(F)cc3c3cc(F)ccc32)C1 (racemic) [Compound 44, trans-tert-butyl 3-(3,6-difluoro-9H-carbazol-9-yl)-4-hydroxypiperidine-1-carboxylate]",792 nM
2,"CC(C)(C)OC(=O)N1CC[C@@H](n2c3ccc(F)cc3c3cc(F)ccc32)[C@H](O)C1 (racemic) [Compound 46, trans-tert-butyl 4-(3,6-difluoro-9H-carbazol-9-yl)-3-hydroxypiperidine-1-carboxylate]",1330 nM
3,O[C@@H]1CNCC[C@H]1n1c2ccc(F)cc2c2cc(F)ccc21 (racemic) [Compound 62],263 nM
4,"O[C@@H]1CN(Cc2ccccc2)CC[C@H]1n1c2ccc(F)cc2c2cc(F)ccc21 (relative stereo) [Compound 41, trans-1-benzyl-4-(3,6-difluoro-9H-carbazol-9-yl)piperidin-3-ol]",280 nM
5,"O[C@H]1CNCC[C@@H]1n1c2ccc(Cl)cc2c2cc(Cl)cnc21 (single isomer, unassigned) [Compound 19]",93.3 nM
6,"O[C@@H]1CNCC[C@H]1n1c2ccc(Cl)cc2c2cc(Cl)cnc21 (single isomer, unassigned) [Compound 20]",124 nM
7,"O[C@@H]1CCN(Cc2ccccc2)C[C@H]1n1c2ccc(F)cc2c2cc(F)ccc21 (single isomer, unassigned) [Compound 42]",79.8 nM
8,"O[C@H]1CCN(Cc2ccccc2)C[C@@H]1n1c2ccc(F)cc2c2cc(F)ccc21 (single isomer, unassigned) [Compound 43]",910 nM
9,"CC(C)(C)OC(=O)N1CC[C@@H](O)[C@H](n2c3ccc(F)cc3c3cc(F)ccc32)C1 (single isomer, unassigned) [Compound 47]",576 nM
10,"CC(C)(C)OC(=O)N1CC[C@H](O)[C@@H](n2c3ccc(F)cc3c3cc(F)ccc32)C1 (single isomer, unassigned) [Compound 48]",1260 nM
11,"O[C@@H]1CCN(CCC(F)(F)F)C[C@H]1n1c2ccc(F)cc2c2cc(F)ccc21 [Compound 45, (3R,4R)-3-(3,6-difluoro-9H-carbazol-9-yl)-1-(3,3,3-trifluoropropyl)piperidin-4-ol]",96 nM
12,"O[C@@H]1CCN(CCCC(F)(F)F)C[C@H]1n1c2ccc(F)cc2c2cc(F)ccc21 [Compound 49, (3R,4R)-3-(3,6-difluoro-9H-carbazol-9-yl)-1-(4,4,4-trifluorobutyl)piperidin-4-ol]",33.6 nM

# Continued, values first:
row,IC50,Structure (SMILES)
1,1300 nM,"O[C@@H]1CCNC[C@H]1n1c2ccc(C(F)(F)F)cc2c2cc(C(F)(F)F)ccc21 (racemic) [Compound 59, trans-3-(3,6-bis(trifluoromethyl)-9H-carbazol-9-yl)piperidin-4-ol]"
2,22.2 nM,"O[C@@H]1CNCC[C@H]1n1c2ccc(C(F)(F)F)cc2c2cc(C(F)(F)F)ccc21 (racemic) [Compound 68, trans-4-(3,6-bis(trifluoromethyl)-9H-carbazol-9-yl)piperidin-3-ol]"
3,233 nM,"O[C@@H]1CCN(Cc2ccccc2)C[C@H]1n1c2ccc(F)cc2c2cc(F)ccc21 (relative stereo) [Compound 63, trans-1-benzyl-3-(3,6-difluoro-9H-carbazol-9-yl)piperidin-4-ol]"
4,3600 nM,"O[C@@H]1CCNC[C@H]1n1c2ccc(Cl)cc2c2cc(Cl)cnc21 (single isomer, unassigned) [Compound 55]"
5,1690 nM,"O[C@@H]1CCNC[C@H]1n1c2ccc(Cl)cc2c2cc(Cl)ccc21 (single isomer, unassigned) [Compound 66]"
6,290 nM,"O[C@@H]1CCN(CC2CC2)C[C@H]1n1c2ccc(F)cc2c2cc(F)ccc21 [Compound 50, (3R,4R)-1-(cyclopropylmethyl)-3-(3,6-difluoro-9H-carbazol-9-yl)piperidin-4-ol]"
7,555 nM,"CC(C)(C)CN1CC[C@@H](O)[C@H](n2c3ccc(F)cc3c3cc(F)ccc32)C1 [Compound 51, (3R,4R)-3-(3,6-difluoro-9H-carbazol-9-yl)-1-neopentylpiperidin-4-ol]"
8,169 nM,"O[C@@H]1CCN(CCc2ccccc2)C[C@H]1n1c2ccc(F)cc2c2cc(F)ccc21 [Compound 52, (3R,4R)-3-(3,6-difluoro-9H-carbazol-9-yl)-1-phenethylpiperidin-4-ol]"
9,73.6 nM,"O[C@@H]1CCN(CC2(C(F)(F)F)CC2)C[C@H]1n1c2ccc(F)cc2c2cc(F)ccc21 [Compound 53, (3R,4R)-3-(3,6-difluoro-9H-carbazol-9-yl)-1-((1-(trifluoromethyl)cyclopropyl)methyl)piperidin-4-ol]"
10,28.2 nM,"O[C@@H]1CCN(CCC(F)(F)F)C[C@H]1n1c2ccc(Cl)cc2c2cc(Cl)ccc21 [Compound 54, (3R,4R)-3-(3,6-dichloro-9H-carbazol-9-yl)-1-(3,3,3-trifluoropropyl)piperidin-4-ol]"
11,2240 nM,"O[C@@H]1CCN(CCC(F)(F)F)C[C@H]1n1c2ccc(Cl)cc2c2cc(Cl)cnc21 [Compound 57, (3R,4R)-3-(3,6-dichloro-9H-pyrido[2,3-b]-indol-9-yl)-1-(3,3,3-trifluoropropyl)piperidin-4-ol]"
12,724 nM,"O[C@@H]1CN(CCC(F)(F)F)CC[C@H]1n1c2ccc(Cl)cc2c2cc(Cl)cnc21 [Compound 58, (3R,4R)-4-(3,6-dichloro-9H-pyrido[2,3-b]indol-9-yl)-1-(3,3,3-trifluoropropyl)piperidin-3-ol]"
13,20.5 nM,"O[C@@H]1CNCC[C@H]1n1c2ccc(C(F)(F)F)cc2c2cc(C(F)(F)F)ccc21 [Compound 60, (3R,4R)-4-(3,6-bis(trifluoromethyl)-9H-carbazol-9-yl)piperidin-3-ol]"
14,20.5 nM,"O[C@H]1CNCC[C@@H]1n1c2ccc(C(F)(F)F)cc2c2cc(C(F)(F)F)ccc21 [Compound 61, (3S,4S)-4-(3,6-bis(trifluoromethyl)-9H-carbazol-9-yl)piperidin-3-ol]"
